# Results as given in patent US11931325B2, “Hair-growth promoting composition and usage thereof” (Eaderm Co., Ltd., priority 2015, dated 2024).
# Legend:
# [1] = test system: ob/ob mouse; experiment: Hair growth experiment using an iNOS inhibitor in shaved/depilated ob/ob mice; format: in vivo; settings: for time until deposition of melanin pigments in the skin was observed: hair removed at 8 weeks of age, intraperitoneal in saline (10, 20 and 30 mg/kg for 1400W, L-NIL, BYK191023), time from start of administration; for area of hair growth compared to 1400W: 4 weeks
# Experimental: For this experiment, the ob/ob mouse purchased from Sankyo Labo Service Corporation was used. The whole back of the mouse was shaved using an electric shaver under anesthesia (mixed anesthesia of ketamine hydrochloride and xylazine hydrochloride) at 8 weeks of age, and the hair was removed with a commercially available depilatory cream (Epilat hair removal cream from Kracie Holdings, Ltd.). Administration or application of each iNOS inhibitor was carried out on the day the experiment began. The usage and dosage of the iNOS inhibitors used are as described below. Selective iNOS inhibitors, 1400W, L-NIL and BYK191023, were purchased from Tocris Bioscience and dissolved in saline solution, and each of them was administered intraperitoneally at 10 mg/kg, 20 mg/kg and 30 mg/kg. For the control group, saline solution was administered intraperitoneally. Consecutive administration for five days from Monday to Friday was continued for one month. A similarly selective iNOS inhibitor, aminoguanidine, was purchased from Tokyo Chemical Industry Co., Ltd. and dissolved in saline solution to 10% (w/v), and 100 μl was applied to the epilation area. For the control group, saline solution was used. Consecutive application for five days from Monday to Friday was continued for one month. The back was photographed once a week and observation was continued until 12 weeks of age. Every seven days from the start of the administration, the state of hair growth in the shaved area was rated using the hair growth score standard below.
# (Hair Growth Score Standard)
# 1=hair growth in less than 10% of the shaved area
# 2=hair growth in equal to or more than 10% and less than 20% of the shaved area
# 3=hair growth in equal to or more than 20% and less than 30% of the shaved area
# 4=hair growth in equal to or more than 30% and less than 40% of the shaved area
# 5=hair growth in equal to or more than 40% and less than 50% of the shaved area
# 6=hair growth in equal to or more than 50% and less than 60% of the shaved area
# 7=hair growth in equal to or more than 60% and less than 70% of the shaved area
# 8=hair growth in equal to or more than 70% and less than 80% of the shaved area
# 9=hair growth in equal to or more than 80% and less than 90% of the shaved area
# 10=hair growth in equal to or more than 90% of the shaved area
# [2] = test system: C3H mouse and C57BL/6 mouse; experiment: Hair growth experiment using wild-type mice (application of aminoguanidine); format: in vivo; settings: C3H and C57BL/6 mice, 10% (w/v) in saline, 100 μl applied to the epilation area, five days a week for three weeks
# Experimental: In this experiment, the same method as Example 2 was used, except that the C3H mouse and C57BL/6 mouse were used. The whole back of the mouse was shaved using an electric shaver under anesthesia (mixed anesthesia of ketamine hydrochloride and xylazine hydrochloride) at 8 weeks of age, and the hair was removed with a commercially available depilatory cream (Epilat hair removal cream from Kracie Holdings, Ltd.). Application of aminoguanidine was carried out on the day the experiment began. The usage and dosage of the aminoguanidine used are as described below. Aminoguanidine was purchased from Tokyo Chemical Industry Co., Ltd. and dissolved to 10% (w/v) in saline solution, and 100 μl was applied to the epilation area. For the control group, saline solution was used. Consecutive application for five days from Monday to Friday was continued for three weeks, and the back was photographed daily.
# [3] = 10% (w/v) in saline, 100 μl applied to the epilation area, time from start of application
smiles,measurement,setting,value
CC(=N)NCc1cccc(CN)c1 [1400W],time until widespread hair growth was confirmed,"[1]; intraperitoneal administration, five days a week for one month",four
COc1ccnc(CCc2nc3ncccc3[nH]2)c1 [BYK191023],time until deposition of melanin pigments in the skin was observed,[1]; five days a week for one month,three
same,area of hair growth compared to 1400W,[1]; intraperitoneal administration,less
CC(=N)NCCCC[C@H](N)C(=O)O [L-NIL],time until deposition of melanin pigments in the skin was observed,[1]; five days a week for one month,three
same,area of hair growth compared to 1400W,[1]; intraperitoneal administration,less
N=C(N)NN [aminoguanidine],shortening of the telogen phase compared to the control group,[2],two to three
same,time until hair growth was confirmed,[1]; [3],two
same,time until hair returned to almost the same as the original condition,[1]; [3],four
same,time until widespread hair growth was confirmed,[1]; [3],three
